Results taken from patent US12544370B2, “Methods for cancer therapy” (ASCENTAGE PHARMA (SUZHOU) CO., LTD., priority 2018, dated 2026).

Legend:
[1] = test system: Ba/F3 cells having BCR-ABL^WT
[2] = test system: CRKL phosphorylation in PBMCs, a biomarker of BCR-ABL inhibition; assay: Phase 1 trial, CRKL phosphorylation in PBMCs (Example 2); type: in vivo, human; details: 53 evaluable patients
Text: The eligible patients received treatments until disease progression or intolerable toxicities. The primary efficacy endpoint in the CML AP and CP patients, was complete hematological response (CHR) and major cytogenetic response (MCyR) respectively, MCyR includes partial cytogenetic response (PCyR) and complete cytogenetic response (CCyR). Blood samples were collected at various time points on Day 1-2 and Day 27-28 during cycle 1 for PK analyses.

[3] = test system: murine Ba/F3 cells expressing BCR-ABL^WT; assay: Subcutaneous tumors, isogenic Ba/F3 BCR-ABL WT model; type: in vivo
[4] = biological target: Ba/F3 containing BCR-ABL Wild Type (Homo sapiens, UniProt P00519); details: read-out: Antiproliferation Effect (IC50)
Chain of Ba/F3 containing BCR-ABL Wild Type (P00519 whole entry, stated change not applied): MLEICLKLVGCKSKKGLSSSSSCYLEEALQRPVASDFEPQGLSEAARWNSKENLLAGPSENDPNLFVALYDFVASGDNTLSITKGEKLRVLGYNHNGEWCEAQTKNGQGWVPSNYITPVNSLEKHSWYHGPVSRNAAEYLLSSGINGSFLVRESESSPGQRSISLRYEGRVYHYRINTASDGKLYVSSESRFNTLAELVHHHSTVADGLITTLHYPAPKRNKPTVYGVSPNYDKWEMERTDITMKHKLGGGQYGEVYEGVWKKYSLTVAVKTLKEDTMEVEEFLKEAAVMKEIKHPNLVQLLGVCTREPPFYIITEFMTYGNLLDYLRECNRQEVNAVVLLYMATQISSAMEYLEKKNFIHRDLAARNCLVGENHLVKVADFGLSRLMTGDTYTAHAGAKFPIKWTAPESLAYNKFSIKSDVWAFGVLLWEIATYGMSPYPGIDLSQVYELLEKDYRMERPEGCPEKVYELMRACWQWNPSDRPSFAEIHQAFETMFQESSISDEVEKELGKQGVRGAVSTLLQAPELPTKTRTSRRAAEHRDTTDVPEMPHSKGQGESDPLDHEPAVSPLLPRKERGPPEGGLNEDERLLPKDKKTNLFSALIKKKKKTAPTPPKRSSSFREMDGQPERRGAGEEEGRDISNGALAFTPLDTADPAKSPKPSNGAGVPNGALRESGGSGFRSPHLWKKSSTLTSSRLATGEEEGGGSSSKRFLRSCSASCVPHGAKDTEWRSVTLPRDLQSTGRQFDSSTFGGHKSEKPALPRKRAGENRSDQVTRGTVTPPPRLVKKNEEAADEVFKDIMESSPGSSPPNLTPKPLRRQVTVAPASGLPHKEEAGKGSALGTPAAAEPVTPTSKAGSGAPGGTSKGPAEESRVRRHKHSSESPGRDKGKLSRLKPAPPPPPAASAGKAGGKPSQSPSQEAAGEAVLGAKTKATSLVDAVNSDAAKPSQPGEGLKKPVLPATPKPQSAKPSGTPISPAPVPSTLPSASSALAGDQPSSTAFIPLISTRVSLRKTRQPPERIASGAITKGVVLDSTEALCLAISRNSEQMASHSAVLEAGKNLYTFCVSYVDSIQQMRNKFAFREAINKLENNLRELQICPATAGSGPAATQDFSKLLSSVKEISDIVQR

[5] = test system: human CML xenograft model; assay: Subcutaneous tumors, human CML xenograft model; type: in vivo
[6] = test system: patients with chronic phase (CP/CML-CP) or accelerated phase (AP/CML-AP) CML resistant to or intolerant of ≥2 prior TKIs or with BCR-ABL T315I; assay: Phase 1 trial in resistant CML, further efficacy (Example 2); type: in vivo, human
Text: The eligible patients received continuous treatment until disease progression or unacceptable toxicity, consent withdrawal, or death. The primary efficacy endpoints were major cytogenetic response (MCyR) for CP and complete hematological response (CHR) for AP. MCyR includes partial cytogenetic response (PCyR) and complete cytogenetic response (CCyR). Blood samples were collected at various time points on Day 1-2 and Day 27-28 during cycle 1 for PK analyses.

[7] = Table 4, AP-CML, With T315I mut., 11 evaluable
[8] = Table 4, AP-CML, With T315I mut., 11 evaluated
[9] = Table 4, AP-CML, Without T315I mut., 3 evaluable
[10] = Table 4, AP-CML, Without T315I mut., 3 evaluated
[11] = Table 4, CP-CML, With T315I mut., 48 evaluable
[12] = Table 4, CP-CML, With T315I mut., 51 evaluated
[13] = Table 4, CP-CML, Without T315I mut., 33 evaluable
[14] = Table 4, CP-CML, Without T315I mut., 35 evaluated

Cc1ccc(C(=O)Nc2ccc(CN3CCN(C)CC3)c(C(F)(F)F)c2)cc1C#Cc1cnc2[nH]ncc2c1 [compound of formula (I-A), 3-(2-(1H-pyrazolo[3,4-b]pyridin-5-yl)ethynyl)-4-methyl-N-(4-((4-methylpiperazin-1-yl)methyl)-3-(trifluoromethyl)phenyl)-benzamide]
survival rate of isogenic leukemia mice [1]: significantly improved the survival rate | reduction of CRKL phosphorylation in PBMCs [2]: dose and time dependent | effect on subcutaneous tumors [3]: complete regression | GI50 [4]: 6 ± 3 nM | effect on subcutaneous tumors [5]: complete regression | progression free survival (PFS) rate at 18-month ([6]; AP patients (FIG. 7B)): 61% | progression free survival (PFS) rate at 18-month ([6]; CP patients (FIG. 7B)): 94% | anti-leukemic activity by dose ([6]; Example 2): potent anti-leukemic activities at doses ≥12 mg QOD | CHR achieved ([6]; Example 2, 68 evaluable patients with non-CHR at baseline (CP+AP)): 63 (92.6%) n (%) | Complete molecular response, percent ([6]; Table 4, AP-CML, All Patients, 14 evaluated): (14.3%) | Complete hematological response, percent ([6]; Table 4, AP-CML, With T315I mut., 10 evaluable): (80.0%) | Complete cytogenetic response, percent [6, 7]: (45.5%) | Major cytogenetic response, percent [6, 7]: (54.5%) | Complete molecular response, percent [6, 8]: (18.2%) | Major/Complete molecular response, percent [6, 8]: (45.5%) | Complete cytogenetic response [6, 9]: 0 n(%) | Complete hematological response [6, 9]: 3 (100.0%) n(%) | Major cytogenetic response [6, 9]: 0 n(%) | Complete molecular response [6, 10]: 0 n(%) | Major/Complete molecular response [6, 10]: 0 n(%) | Complete molecular response, percent ([6]; Table 4, CP-CML, All Patients, 86 evaluated): (20.9%) | Complete hematological response, percent ([6]; Table 4, CP-CML, With T315I mut., 33 evaluable): (97.0%) | Complete cytogenetic response, percent [6, 11]: (77.1%) | Major cytogenetic response, percent [6, 11]: (81.3%) | Complete molecular response, percent [6, 12]: (29.4%) | Major/Complete molecular response, percent [6, 12]: (52.9%) | Complete hematological response, percent ([6]; Table 4, CP-CML, Without T315I mut., 22 evaluable): (90.9%) | Complete cytogenetic response, percent [6, 13]: (36.4%) | Major cytogenetic response, percent [6, 13]: (51.5%) | Complete molecular response, percent [6, 14]: (8.6%) | Major/Complete molecular response, percent [6, 14]: (14.3%)
